Data taken from patent US20260374739A1, “SMALL MOLECULAR WEIGHT CHEMICAL COMPOUND TO ANTAGONIZE EPH-EPHRIN TETRAMERIZATION AND INHIBIT BIDIRECTIONAL SIGNALING” (THE BOARD OF REGENTS OF THE UNIVERSITY OF TEXAS SYSTEM, priority 2022, published 2026).
“And” between values parts separate entries of the source, which are not always exact repeats. Equal entries are not always repeated. “Also recorded” adds a separate entry of the source. Where two headings read alike, the source gives them in different places.

What was measured:
[1] = molecular target: T1, EphrinB2-EphB4 (Homo sapiens, UniProt P54760); assay: Octet 80 sec association/500 sec dissociation, immobilized human EphrinB2-Fc binding to soluble human EphB4-His
T1 construct: soluble human EphB1-His, EphB2-His, and EphB4-His ectodomains; commercially available human EphrinB1-Fc (EB1), EphrinB2-Fc (EB2), and EphrinB3-Fc (EB3) ectodomain proteins; purchased
T1 sequence (P54760 16-539 limits assumed): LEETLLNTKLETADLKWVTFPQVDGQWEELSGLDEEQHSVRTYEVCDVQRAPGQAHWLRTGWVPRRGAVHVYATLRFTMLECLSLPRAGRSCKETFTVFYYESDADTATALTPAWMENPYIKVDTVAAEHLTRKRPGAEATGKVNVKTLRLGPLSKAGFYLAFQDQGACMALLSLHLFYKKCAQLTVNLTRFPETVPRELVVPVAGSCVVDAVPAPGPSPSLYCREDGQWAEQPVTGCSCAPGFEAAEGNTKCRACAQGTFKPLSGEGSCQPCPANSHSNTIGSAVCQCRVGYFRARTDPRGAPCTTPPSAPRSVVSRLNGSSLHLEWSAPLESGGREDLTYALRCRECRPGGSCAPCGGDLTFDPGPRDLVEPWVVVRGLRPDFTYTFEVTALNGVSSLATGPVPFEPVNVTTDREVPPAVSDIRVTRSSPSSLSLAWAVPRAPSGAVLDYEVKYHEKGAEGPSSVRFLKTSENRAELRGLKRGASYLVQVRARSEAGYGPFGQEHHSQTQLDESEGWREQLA
Summary of the method: (§1)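 EphrinB2-Fc captured on AHC biosensors, then soluble His-tagged EphB ectodomain (25 nM for % inhibition runs) associated 80 s and dissociated 500 s in PBS, 0.05% Tween-20, 1% DMSO ± compound. Compounds tested at 0.1–3.2 μM with a 10 μM max standard; IC50 from AUC of full traces or at 75 s and 135 s.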

[2] = molecular target: T2, EphrinB2-EphB2 (Homo sapiens, UniProt P29323); assay: Octet tetramerization inhibition, immobilized human EphrinB2 binding to 50 nM soluble human EphB2
T2 construct: soluble human EphB1-His, EphB2-His, and EphB4-His ectodomains; commercially available human EphrinB1-Fc (EB1), EphrinB2-Fc (EB2), and EphrinB3-Fc (EB3) ectodomain proteins; purchased
T2 sequence (P29323 19-543 limits assumed): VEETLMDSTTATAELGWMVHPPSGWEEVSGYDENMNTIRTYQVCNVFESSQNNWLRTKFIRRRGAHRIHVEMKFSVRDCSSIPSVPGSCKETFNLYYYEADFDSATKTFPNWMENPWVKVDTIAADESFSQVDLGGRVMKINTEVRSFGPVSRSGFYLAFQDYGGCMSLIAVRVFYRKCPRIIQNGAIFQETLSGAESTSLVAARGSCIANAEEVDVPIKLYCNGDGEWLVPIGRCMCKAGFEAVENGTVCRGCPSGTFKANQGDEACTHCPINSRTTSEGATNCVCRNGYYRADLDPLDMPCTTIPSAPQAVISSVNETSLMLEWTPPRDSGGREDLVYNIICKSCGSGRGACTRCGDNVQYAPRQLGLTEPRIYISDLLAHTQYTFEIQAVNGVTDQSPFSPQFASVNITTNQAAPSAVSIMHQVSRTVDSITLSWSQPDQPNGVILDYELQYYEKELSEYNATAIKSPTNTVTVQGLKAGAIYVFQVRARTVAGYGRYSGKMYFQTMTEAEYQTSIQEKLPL

[3] = molecular target: T2, EphrinB2-EphB2; assay: Octet 80 sec association/500 sec dissociation, immobilized human EphrinB2-Fc binding to soluble human EphB2-His
Summary of the method: as §1

[4] = Absolute AUC/IC50, Table A, EphrinB2-EphB2
[5] = Absolute Association IC50 (300 sec), Table A, EphrinB2-EphB2
[6] = Absolute Dissociation IC50 (450 sec), Table A, EphrinB2-EphB2
[7] = Relative AUC/IC50, Table A, EphrinB2-EphB2, compound 7: association only
[8] = Relative Association IC50 (300 sec), Table A, EphrinB2-EphB2
[9] = Relative Dissociation IC50 (450 sec), Table A, EphrinB2-EphB2
[10] = tetramerization inhibitor IC50 (relative), association step, surmountable tetramer
[11] = EphB2, 25 nM EphB2, 3.2 μM compound, A20-I as max control, 0* = less than 0, no inhibition

Oc1c(I)cc(CN2CCOCC2)c2cccnc12 [Compound 7, 7-iodo-5-(morpholinomethyl)quinolin-8-ol]
% Inhibited (AUC), Association + Dissociation ([1]; EphB4, 0-160 sec, 50 nM, 10 μM compound, Table 4): 26.5%
inhibition at 3.2 µM ([1]; EphB4, 25 nM EphB4, 3.2 μM compound, A20-I as max control, 0* = less than 0, no inhibition, read-out: % Inhibition: Association + Dissociation (160 sec)): 32.9%
% Inhibited (AUC), Association ([1]; EphB4, 50 nM, 10 μM compound, Table 4): 13.3%
inhibition ([1]; EphB4, 10 μM 2×HCl salt, read-out: % Inhibited (AUC), Association): 13.9%
IC50 ([1]; EphB4, Association (75″), read-out: Absolute IC50): > 3.2 µM
IC50 ([1]; EphB4, Association (75″), read-out: Relative IC50): 1.7 µM
IC50 ([1]; EphB4, Association (AUC), read-out: Absolute IC50): > 3.2 µM
IC50 ([1]; EphB4, Association (AUC), read-out: Relative IC50): 1.66 µM
IC50 ([1]; EphB4, Dissociation (135″), read-out: Absolute IC50): 3.02 µM
IC50 ([1]; EphB4, Dissociation (135″), read-out: Relative IC50): 0.98 µM
IC50 ([1]; EphB4, Full AUC, read-out: Absolute IC50): 1.26 µM
IC50 ([1]; EphB4, Full AUC, read-out: Relative IC50): 0.89 µM
inhibition ([1]; EphB4, first 160 sec, 10 μM 2×HCl salt, read-out: % Inhibited (AUC), Association + Dissociation): 33.9%
inhibition ([1]; EphB4, highest dose, typically 3.2 μM, read-out: Association (% Inhibited (AUC))): 15.4%
inhibition ([1]; EphB4, highest dose, typically 3.2 μM, read-out: Association + Dissociation (% Inhibited (AUC))): 37%
tetramerization inhibitor activity [2]: stronger tetramerization inhibitor compared to A20
IC50 [2, 4]: > 1.6 µM
IC50 [2, 5]: 1.5 µM
IC50 [2, 6]: > 1.6 µM
IC50 [2, 7]: 0.44 µM
IC50 [2, 8]: 0.89 µM
IC50 [2, 9]: 1.07 µM
IC50 [2, 10]: ~0.6 µM
% Inhibition: Association + Dissociation (160 sec) [3, 11]: 80.6% and 77.6% and 74.3%
% Inhibition: Association ONLY (80 sec) [3, 11]: 66.1% and 61.2% and 56.7%
inhibition at 3.2 µM ([3]; EphB2, 25 nM EphB2, 3.2 μM compound, A20-I as max control, 0* = less than 0, no inhibition, read-out: % Inhibition: Association + Dissociation (160 sec)): 75.3%
inhibition at 3.2 µM ([3]; EphB2, 25 nM EphB2, 3.2 μM compound, A20-I as max control, 0* = less than 0, no inhibition, read-out: % Inhibition: Association ONLY (80 sec)): 59.6%
inhibition ([3]; EphB2, 10 μM 2×HCl salt, read-out: % Inhibited (AUC), Association): 61.8%
IC50 ([3]; EphB2, Association (75″), read-out: Absolute IC50): 1.66 µM
IC50 ([3]; EphB2, Association (75″), read-out: Relative IC50): 1.2 µM
IC50 ([3]; EphB2, Association (AUC), read-out: Absolute IC50): 2.24 µM
IC50 ([3]; EphB2, Association (AUC), read-out: Relative IC50): 1.15 µM
IC50 ([3]; EphB2, Dissociation (135″), read-out: Absolute IC50): 0.41 µM
IC50 ([3]; EphB2, Dissociation (135″), read-out: Relative IC50): 0.34 µM
IC50 ([3]; EphB2, Full AUC, read-out: Absolute IC50): 0.24 µM
IC50 ([3]; EphB2, Full AUC, read-out: Relative IC50): 0.19 µM
inhibition ([3]; EphB2, first 160 sec, 10 μM 2×HCl salt, read-out: % Inhibited (AUC), Association + Dissociation): 76.5%
inhibition ([3]; EphB2, highest dose, typically 3.2 μM, read-out: Association (% Inhibited (AUC))): 56.4%
inhibition ([3]; EphB2, highest dose, typically 3.2 μM, read-out: Association + Dissociation (% Inhibited (AUC))): 74.7%

O=[N+]([O-])c1cc(CN2CCOCC2)c2cccnc2c1O [Compound 9, 5-(morpholinomethyl)-7-nitroquinolin-8-ol]
less % inhibition activity toward EphrinB2-EphB4 ([1]; 3.2 μM): approximately 20 fold
selectivity among EphrinB2-EphB1/B2/B4 ([1]; 3.2 μM, listed as A19-NO2): selectively inhibit EphrinB2-EphB2 and EphrinB2-EphB1 interactions, while sparing most of the EphrinB2-EphB4 interaction; also recorded: less action towards EphB4 but high specificity for EphB1 and EphB2
inhibition of EphB4-EphrinB2 binding ([1]; association step, general): 0%
EphB4 Inhibition Percent, Inhibition of Association ONLY ([1]; at 3.2 μM and 80 seconds, immobilized human EphrinB2, 25 nM soluble human EphB4): 0.6% and 0% and 8.2%
tetramerization inhibitor activity [2]: weak, essentially inactive
IC50 [2, 4]: > 3.2 µM
IC50 [2, 5]: > 3.2 µM
IC50 [2, 6]: > 3.2 µM
IC50 [2, 7]: > 3.2 µM
IC50 [2, 8]: > 3.2 µM
IC50 [2, 9]: > 3.2 µM
IC50 [2, 10]: > 3 µM
% Inhibition: Association + Dissociation (160 sec) ([3]; EphB2, 25 nM EphB2, 3.2 μM compound, A20-I as max control, 0* = less than 0, no inhibition, listed as A19-NO2 (A)): 58.0% and 38.9%
inhibition of EphB2-EphrinB2 binding ([3]; association step, general): 40%
EphB2 Inhibition Percent, Inhibition of Association-Dissociation ([3]; at 3.2 μM and 580 seconds, immobilized human EphrinB2, 25 nM soluble human EphB2): 58.0% (2×) and 38.9%
